Laboratory results published in ChEMBL document CHEMBL6103573, “Discovery of novel thienopyridine indole derivatives as inhibitors of tubulin polymerization targeting the colchicine-binding site with potent anticancer activities” (Eur J Med Chem, 2025).
Calls of active or inactive are those of the source. No cut-off for these calls is given here.

Tests used:
MGC-803 [1] = experiment: Induction of apoptosis in human MGC-803 cells assessed as late apoptotic cells at 1.0 nmol/L incubated for 48 hrs by Annexin V-FITC/propidium iodide staining based flow cytometry analysis (reference value: 2.22 %); assay type: functional
HGC-27 [2] = experiment: Induction of apoptosis in human HGC-27 cells assessed as late apoptotic cells at 0.25 nmol/L incubated for 48 hrs by Annexin V-FITC/propidium iodide staining based flow cytometry analysis (reference value: 3.70 %); assay type: functional
KYSE-450 = experiment: Antiproliferative activity against human KYSE-450 cells assessed as inhibition of cell proliferation incubated for 48 hrs by MTT assay; assay type: functional, cell-based; settings: KYSE-450, 48 h
ECa-109 cell line = experiment: Antiproliferative activity against human EC109 cells assessed as inhibition of cell proliferation incubated for 48 hrs by MTT assay; assay type: functional, cell-based; settings: ECa-109, 48 h
[3] = molecular target: T1, Tubulin beta (Homo sapiens) (UniProt P68371+Q9H4B7+Q13509+P04350+Q3ZCM7+P07437+Q13885+Q9BVA1+Q9BUF5+A6NNZ2); experiment: (§1) Competitive binding affinity to beta-tubulin colchicine binding site in human MGC-803 cells assessed as inhibition of EBI-beta-tubulin adduct band formation at 1 umol/L preincubated for 2 hrs followed by EBI addition and measured after 2 hrs by Western blotting analysis; assay type: cell-based; settings: dose 1.0 µmol/L, time 4.0 hrs
MGC-803 [4] = experiment: Induction of apoptosis in human MGC-803 cells assessed as downregulation of Bcl-2 expression incubated for 48 hrs by Western blotting analysis; assay type: functional, cell-based; settings: dose 0.25-2 nmol/L
MGC-803 [5] = experiment: Induction of apoptosis in human MGC-803 cells assessed as appearance of round cells at 0.25 to 2.0 nmol/L incubated for 48 hrs by bright field microscopic analysis; assay type: functional, cell-based; settings: dose 0.25-2 nmol/L
HGC-27 [6] = experiment: Anti-migratory activity against human HGC-27 cells assessed as reduction in wound healing area measured after 24 hrs by wound healing assay; assay type: functional, cell-based; settings: dose 0.5-1 nmol/L
HGC-27 [7] = experiment: Induction of apoptosis in human HGC-27 cells incubated for 48 hrs by Annexin V-FITC/propidium iodide staining based flow cytometry analysis; assay type: functional, cell-based; settings: dose 0.25-2 nmol/L
HGC-27 [8] = experiment: Inhibition of colony formation in human HGC-27 cells at 0.5 nmol/L incubated for 7 days by crystal violet staining based colony formation assay relative to control; assay type: functional; settings: HGC-27, 168 h, time 7 day
[9] = molecular target: T1, Tubulin beta (Homo sapiens); experiment: as §1, with “HGC-27” for “MGC-803”, “by measuring reduction in adduct band intensity” for “at 1 umol/L”; assay type: cell-based; settings: dose 0.1-1 µmol/L, time 4.0 hrs
HGC-27 [10] = experiment: Induction of apoptosis in human HGC-27 cells assessed as increase in cleaved Caspase-9 expression at 0.25 to 2.0 nmol/L incubated for 48 hrs by Western blotting analysis; assay type: functional, cell-based; settings: dose 0.25-2 nmol/L
HUVEC [11] = experiment: Anti-migratory activity against HUVEC cells assessed as wound healing rate at 0.5 nmol/L measured after 24 hrs by wound healing assay (reference value: 97 %); assay type: functional, Homo sapiens
HGC-27 [12] = experiment: Induction of apoptosis in human HGC-27 cells assessed as early apoptotic cells at 1.5 nmol/L incubated for 48 hrs by Annexin V-FITC/propidium iodide staining based flow cytometry analysis (reference value: 2.04 %); assay type: functional
HUVEC [13] = experiment: Anti-vascular activity in HUVEC cells assessed as reduction in length of tubular network incubated for 5 hrs by Matrigel based inverted microscopic analysis; assay type: functional, cell-based; settings: Homo sapiens, dose 0.5-2 nmol/L
Tubulin (Homo sapiens) [14] = molecular target: T2, Tubulin (Homo sapiens) (UniProt P68371+Q9H4B7+P0DPH7+P68366+Q13509+Q71U36+P04350+Q3ZCM7+P07437+P68363+Q9BQE3+Q6PEY2+Q13885+Q9BVA1+Q9BUF5); experiment: Inhibition of tubulin (unknown origin) polymerization assessed as decrease in fluorescence intensity at 3 micromol/L in the presence of GTP by fluorescence microplate reader; assay type: protein-complex assay; settings: dose 3.0 µmol/L
MGC-803 [15] = experiment: Induction of apoptosis in human MGC-803 cells assessed as late apoptotic cells at 0.25 nmol/L incubated for 48 hrs by Annexin V-FITC/propidium iodide staining based flow cytometry analysis (reference value: 2.22 %); assay type: functional
MGC-803 [16] = experiment: Induction of apoptosis in human MGC-803 cells assessed as early apoptotic cells at 0.25 nmol/L incubated for 48 hrs by Annexin V-FITC/propidium iodide staining based flow cytometry analysis (reference value: 0.83 %); assay type: functional
MGC-803 [17] = experiment: Antiproliferative activity against human MGC-803 cells assessed as reduction in cell viability at 0.25 to 2.0 nmol/L by MTT assay; assay type: functional, cell-based; settings: dose 0.25-2 nmol/L, time 6-48 hrs
MGC-803 [18] = experiment: Anti-migratory activity against human MGC-803 cells assessed as decrease in cell migration at 1 nmol/L measured after 24 hrs by wound healing assay relative to control; assay type: functional; parameters: scale not given: the % may be the effect or the level left
Tubulin (Homo sapiens) [19] = molecular target: T2, Tubulin (Homo sapiens); experiment: Disruption of microtubule network in human HGC-27 cells assessed as disruption of mitosis at 0.25 to 2.0 nmol/L incubated for 24 hrs by DAPI staining based fluorescence microscopic analysis; assay type: cell-based; settings: dose 0.25-2 nmol/L
HGC-27 [20] = experiment: Induction of apoptosis in human HGC-27 cells assessed as late apoptotic cells at 1.0 nmol/L incubated for 48 hrs by Annexin V-FITC/propidium iodide staining based flow cytometry analysis (reference value: 3.70 %); assay type: functional
HGC-27 [21] = experiment: Induction of apoptosis in human HGC-27 cells assessed as early apoptotic cells at 2.0 nmol/L incubated for 48 hrs by Annexin V-FITC/propidium iodide staining based flow cytometry analysis (reference value: 2.04 %); assay type: functional
HCT-116 = experiment: Antiproliferative activity against human HCT-116 cells assessed as inhibition of cell proliferation incubated for 48 hrs by MTT assay; assay type: functional, cell-based; settings: HCT-116, 48 h
MGC-803 [22] = experiment: Induction of apoptosis in human MGC-803 cells assessed as increase in cleaved Caspase-3 expression at 0.25 to 2.0 nmol/L incubated for 48 hrs by Western blotting analysis; assay type: functional, cell-based; settings: dose 0.25-2 nmol/L
HGC-27 [23] = experiment: Induction of cell cycle arrest at G2 phase in human HGC-27 cells assessed as downregulation of Cyclin B1 level at 0.25 to 2.0 nmol/L measured after 48 hrs by Western blot analysis; assay type: functional, cell-based; settings: dose 0.25-2 nmol/L
HGC-27 [24] = experiment: Induction of apoptosis in human HGC-27 cells assessed as early apoptotic cells at 0.5 nmol/L incubated for 48 hrs by Annexin V-FITC/propidium iodide staining based flow cytometry analysis (reference value: 2.04 %); assay type: functional
HGC-27 [25] = experiment: Induction of apoptosis in human HGC-27 cells assessed as appearance of ruptured cells at 0.25 to 2.0 nmol/L incubated for 48 hrs by bright field microscopic analysis; assay type: functional, cell-based; settings: dose 0.25-2 nmol/L
Tubulin (Homo sapiens) [26] = molecular target: T2, Tubulin (Homo sapiens); experiment: Disruption of microtubule network in human MGC-803 cells assessed as disruption of mitosis at 0.25 to 2.0 nmol/L incubated for 24 hrs by DAPI staining based fluorescence microscopic analysis; assay type: cell-based; settings: dose 0.25-2 nmol/L
[27] = Toxicity in female BALB/c-nu nude mouse xenografted with human MGC-803 cells assessed as change in kidney morphology at 5 mg/kg, po administrated every other day for 11 times and measured after 21 days by hematoxylin and eosin staining based analysis; assay type: organism-based; settings: in vivo, 504 h, time 21 day
HGC-27 [28] = experiment: Induction of cell cycle arrest in human HGC-27 cells assessed as downregulation of Cdc2 phosphorylation at Tyr15 residue measured after 48 hrs by Western blot analysis; assay type: functional, cell-based; settings: dose 0.25-2 nmol/L
HGC-27 [29] = experiment: Induction of apoptosis in human HGC-27 cells assessed as cell contraction at 0.25 to 2.0 nmol/L incubated for 48 hrs by bright field microscopic analysis; assay type: functional, cell-based; settings: dose 0.25-2 nmol/L

CN(c1ccc2c(ccn2C)c1)c1nc(N2CCCC2)nc2sccc12
Activity (MGC-803 [1]): 3.78%
Activity (HGC-27 [2]): 3.14%
IC50 (KYSE-450): 3.16 nM
IC50 (ECa-109 cell line): 2.19 nM
Activity [3]: Active; Stronger Affinity Observed
Activity (MGC-803 [4]): Dose-dependent-effect
Activity (MGC-803 [5]): Active
Activity (HGC-27 [6]): Dose-dependent-effect
Activity (HGC-27 [7]): Dose-dependent-effect
inhibition at 0.0005 µM (HGC-27 [8]): > 90%
Activity [9]: Dose-dependent-effect
Activity (HGC-27 [10]): Active
Activity (HUVEC [11]): 82%
Activity (HGC-27 [12]): 15.58%
Activity (HUVEC [13]): Dose-dependent-effect
inhibition (Tubulin (Homo sapiens) [14]): Active
Activity (MGC-803 [15]): 3.42%
Activity (MGC-803 [16]): 1.28%
Activity (MGC-803 [17]): Time-dependent-effect
Activity (MGC-803 [18]): 24%
Activity (Tubulin (Homo sapiens) [19]): Active
Activity (HGC-27 [20]): 3.98%
Activity (HGC-27 [21]): 14.4%
IC50 (HCT-116): 2.89 nM
Activity (MGC-803 [22]): Active
Activity (HGC-27 [23]): Active
Activity (HGC-27 [24]): 4.64%
Activity (HGC-27 [25]): Active
Activity (Tubulin (Homo sapiens) [26]): Active
Activity [27]: Non-toxic
Activity (HGC-27 [28]): Dose-dependent-effect
Activity (HGC-27 [29]): Active
